Reference: patent US5780221A, “Identification of enantiomeric ligands” (Whitehead Institute for Biomedical Research, priority 1996, dated 1998)
Ends that are not written are not given here.

What was measured:
L-SH3 domain = target: T1, L-SH3 domain (Gallus gallus, UniProt P00523); test: Competitive enzyme-linked immunosorbent assay (ELISA) for L-SH3 binding; design: species or system chicken; details: L- and D-amino acid ligands
T1 construct: Residues 81 to 140 of chicken c-SRC were cloned; modified TrpLE leader (Met to Leu, Cys to Ala) (N, cleaved yes); His9 within the C-terminal region of the TrpLE leader (N, cleaved yes); made in house; host or cells: Escherichia coli BL21(DE3) pLysS, plasmid pMMHb-SRC SH3
Description: (§1) The affinity of Pep-DI for the L-SH3 domain was determined by a competitive enzyme-linked immunosorbent assay (ELISA). Single wells of a 96-well plate were coated with 5 μg of the L-SH3 domain (Scott, J. K. and Smith, G. P., Science, 249:386 (1990); Smith, G. P. and Scott, J. K., Methods in Enzymol., 217:228 (1993)). Wells were blocked with BSA, and phages expressing the L-SH3-binding insert […] (SEQ ID NO: 10) were allowed to bind in 10 mM NaHPO4, pH 7.2, 15 mM NaCl, 1 mg/ml of BSA, 0.05% NaN3, and 0.1% Tween 20, in the presence of increasing amounts of competitor peptide. Phage binding was quantified with a rabbit M13 antibody (Stratagene) and alkaline phosphatase-labeled goat antibody to rabbit (Pierce), with a fresh solution of p-nitrophenol phosphate as substrate. Absorbance at 410 nm was determined with a Dynatech micotiter plate reader. […] Relative values for Kd were obtained as described (Minor, D. L., Jr. and Kim, P. S., Nature, 367:660 (1994)). […] A solution of the peptide was titrated into 1 μM SH3 solution in 15 mM NaCl and 10 mM NaHPO4, pH 7.2. Tryptophan fluorescence was induced by excitation at 295 nm (5 nm slit width), and emission was measured at 339 nm (10 nm slit width), with a Hitachi F-4500 fluorescence spectrometer. The dissociation constant was determined by Scatchard analysis.

SH3 domain = target: T2, SH3 domain (Gallus gallus, UniProt P00523); test: Direct tryptophan fluorescence spectroscopy titration; format: binding, chicken; details: 1 μM SH3, 15 mM NaCl and 10 mM NaHPO4, pH 7.2; Scatchard analysis
T2 construct: Residues 81 to 140 of chicken c-SRC were cloned; modified TrpLE leader (Met to Leu, Cys to Ala) (N, cleaved yes); His9 within the C-terminal region of the TrpLE leader (N, cleaved yes); made in house; host or cells: E. coli in M9 medium with (15NH4)2SO4, plasmid pMMHb-SRC SH3
Description: as §1

(L)-SH3 = target: T3, (L)-SH3 (Gallus gallus, UniProt P00523); test: Retention of bacterially expressed (L)-SH3 on peptide affinity column; format: binding; details: residues 81-140 of chicken c-Src
T3 construct: E. coli BL21(DE3) pLysS, pMMHb TrpLE-His9 fusion, cleaved with CNBr
Description: The L- and D-enantiomers of the chicken c-SRC domain were prepared by bacterial expression and chemical synthesis, respectively. The biotinylated, synthetic, 60-amino acid D-SH3 domain was refolded and purified by affinity chromatography, with a D-amino acid version of a known peptide ligand for the SH3 domain (Yu, H., et al., Cell, 76:933 (1994)).
The all D amino acid SH3 domain, sequence […] S-COOH-terminus (SEQ ID No: 1), residues 81-140 of chicken c-SRC, was synthesized on HMP resin (ABI/Perkin Elmer) with an ABI 431A peptide synthesizer and ABI fastmoc cycles (Fmoc chemistry with HBTU activation and capping with acetic anhydride). Protected D-amino acids were obtained from Bachem California., Bachem Bioscience, Advanced Chemtech, and Novabiochem. For D-Ile and D-Thr, the side chain enantiomers were used, in which the chirality of the side chain is also inverted relative to naturally occurring L-Thr and L-Ile. After completion of the synthesis, the NH2 -terminus of the peptide was modified with NHS-LC-biotin II (Pierce). After cleavage, the peptide was lyophilized, dissolved in 6 M guanidine HCl, pH 6.0, and dialyzed against 100 mM NaHPO4 and 100 mM NaCl, pH 6.0, with the use of dialysis tubing with a molecular cutoff of 3,500 daltons (D) (Spectra/Por). […]

Row | Substance | competition with the L-amino acid ligand (L-SH3 domain) | Kd (SH3 domain) [µM] | retention of bacterially expressed (L)-SH3 on peptide column ((L)-SH3)
1 | (D)-RCLSGLRLGLVPCA [Pep-D1] | competition observed for the binding of these two ligands | – | –
2 | YGGRELPPLPRF-NH2 | – | 6 | can be retained on the (L)-enantiomer
